Molecular target: Serine/threonine-protein kinase pim-1 (Homo sapiens, UniProt P11309)
Assay: Biological Assay: Determination of the Pim kinase activity of a Formula I compound is possible by a number of direct and indirect detection methods. Certain exemplary compounds described herein were assayed for their Pim kinase binding activity, including isoforms Pim-1, Pim-2, andPim-3, (Example 901) and in vitro activity against tumor cells (Example 902).
Type: cell-based

Sequence of Serine/threonine-protein kinase pim-1 (P11309 whole entry, canonical isoform): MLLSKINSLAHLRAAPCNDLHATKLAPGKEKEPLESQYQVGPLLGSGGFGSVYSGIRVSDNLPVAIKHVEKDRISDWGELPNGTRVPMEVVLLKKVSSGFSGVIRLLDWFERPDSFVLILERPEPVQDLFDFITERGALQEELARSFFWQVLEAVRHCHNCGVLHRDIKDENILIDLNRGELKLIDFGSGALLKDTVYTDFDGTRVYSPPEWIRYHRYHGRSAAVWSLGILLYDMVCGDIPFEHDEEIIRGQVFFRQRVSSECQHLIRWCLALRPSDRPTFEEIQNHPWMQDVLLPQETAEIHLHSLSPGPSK

N[C@@H]1CC[C@@H](c2c(NC(=O)c3csc(-c4c(F)cccc4F)n3)cnn2CC(F)F)OC[C@H]1F
Ki: 0.047 nM

— ChEMBL document CHEMBL5727021, “Oxepan-2-yl-pyrazol-4-yl-heterocyclyl-carboxamide compounds and methods of use” (2018)
